Source: patent US4843087A (priority 1986, dated 1989)
Converted amounts (≈) assume the structure as drawn. Read-outs that look alike come from different tables or passages of the source.

Columns and labels:
[1] = system: poliovirus, type 2, MEF strain; test: animal or person; type: in vivo, white Swiss mice; settings: Enterovirus C, in Mus musculus, po, 336 h, read-out: Survivors Day 14 Post Infection
[2] = system: Polio 2; test: microbe, parasite or virus in culture; type: cell-based, poliovirus; settings: Enterovirus C, HeLa, read-out: Polio 2 MIC
[3] = system: coxsackie virus A-9; test: in vivo efficacy in coxsackie virus A-9 mouse infection model
[4] = system: echovirus-9; test: in vivo efficacy in echovirus-9 mouse infection model
[5] = system: enteroviruses; test: microbe, parasite or virus in culture; type: cell-based; settings: Enterovirus, read-out: MIC80
[6] = system: human rhinovirus (HRV) serotypes; test: microbe, parasite or virus in culture; type: cell-based; settings: for MIC50: read-out: Rhinovirus MIC50
[7] = blood plasma concentration in dogs after oral administration; type: in vivo; settings: dog, beagle dogs, fasted, oral 25 mg/kg in corn oil, up to six hours
Protocol: The blood plasma concentrations of the compounds of the invention were measured in beagle dogs by the following procedure: Animals ranging in weight from 8.5 to 11.5 kg were fasted overnight prior to oral administration of 25 mg/kg of the test compound dissolved in corn oil (125 mg/ml) and contained in gelatin capsules. Blood samples were collected at selected time intervals up to six hours post-medication and analyzed by standard chromatographic procedures to determine the mean maximum concentration of the test compound in micrograms per milliliter [Mean Cmax, μg/ml].

Row | SMILES | responders at 50 mg/kg [1] | responders at 100 mg/kg [1] | responders at 200 mg/kg [1] | MIC [2] | ED50 ([3]; Mus musculus, po, read-out: PD50) | oral activity in coxsackie virus A-9 infections ([3]; mouse infection model, oral) | oral activity in echovirus-9 infections [4] | IC (MIC80 of serotype panel) [5] | IC (MIC80 of serotype panel) ([6]; read-out: MIC80) | MIC50 [6] | IC (MIC80 of serotype panel) ([6]; read-out: Rhinovirus MIC80) | Cmax [7]
1 | Cc1cc(CCCCCOc2c(Cl)cc(C3=NCCO3)cc2Cl)on1 [5-{5-[2,6-Dichloro-4-(4,5-dihydro-2-oxazolyl)phenoxyl]-pentyl}-3-methylisoxazole] | 10% | 25% | 30% | 0.59 µg/mL (≈ 1.54 µM) | 2.5 mg/kg | potent oral activity | potent oral activity | 1.6 µg/mL | 0.23 µg/mL | 0.07 µg/mL (≈ 0.183 µM) | 0.126 µg/mL | 1570 ± 350 ng/mL
2 | Cc1cc(CCCCCOc2c(C)cc(C3=NCCO3)cc2C)on1 [Example 58, 5-{5-[4-(4,5-Dihydro-2-oxazolyl)-2,6-dimethylphenoxy]pentyl}-3-methylisoxazole] |  |  |  | 3.1 µg/mL (≈ 9.05 µM) |  |  |  |  |  | 0.15 µg/mL (≈ 0.438 µM) | 0.43 µg/mL | 4260 ± 470 ng/mL
